Data published in ChEMBL document CHEMBL1148803, “Polyfluorinated bis-styrylbenzene beta-amyloid plaque binding ligands” (J Med Chem, 2007).

assay: Binding affinity to beta amyloid protein 1-40 by fluorescence titration; design: species or system Homo sapiens

Row | SMILES | Kd [nM]
1 | Oc1ccc(/C=C/c2ccc(/C=C/c3ccc(O)cc3)cc2)cc1 | 11
2 | FC(F)(F)Oc1ccc(/C=C/c2ccc(/C=C/c3ccc(OC(F)(F)F)cc3)cc2)cc1 | 10
3 | O=C(O)c1cc(/C=C/c2c(F)c(F)c(/C=C/c3ccc(O)c(C(=O)O)c3)c(F)c2F)ccc1O | 9.4
4 | FC(F)(F)c1ccc(/C=C/c2ccc(/C=C/c3ccc(C(F)(F)F)cc3)cc2)cc1 | 9.5
5 | Oc1ccc(/C=C/c2c(F)c(F)c(/C=C/c3ccc(O)cc3)c(F)c2F)cc1 | 0.03
6 | O=C(O)c1cc(/C=C/c2ccc(/C=C/c3ccc(O)c(C(=O)O)c3)c(F)c2)ccc1O | 3400
7 | FC(F)(F)c1cccc(/C=C/c2ccc(/C=C/c3cccc(C(F)(F)F)c3)cc2)c1 | 26
8 | FC(F)(F)Oc1cccc(/C=C/c2ccc(/C=C/c3cccc(OC(F)(F)F)c3)cc2)c1 | 16
9 | Cc1ccc2c(c1)sc(-c1ccc(N(C)C)cc1)[n+]2C [THIOFLAVIN T] | 560
